{
  "source": "patent US7135590B2",
  "about": "“Gallic acid derivative and process of preparing the same” (Council of Scientific and Industrial Research, priority 2003, dated 2006)",
  "key": {"Bacopa monnieri": {"tested_on": "Bacopa monnieri", "assay": "Growth promoting activity using Bacopa sensor system", "type": "in vivo", "experimental": "For testing the growth promoting effect of methanone-(3′,4′,5′-trimethoxy) phenyl, 1-naphthyl, 2-O-4″-ethyl but-2″-enoate, the compounds was dissolved in DMSO and added into the medium at 1.0 μg/ml. Only solvent was used as a control in the experiment for comparison. A fast propagating strain of Bacopa monnieri developed as a biosensor system through tissue culture at CIMAP (Khanuja et al., 2001, J Environa Pathol, Toxicol and Onco (JEPTO), 20:pp. 15 to 22) was used in the tests. The MS basal medium (Murashige and Skoog, 1962, Physiol. Planta. 15: pp. 473 to 497) supplemented with test compounds was used in the assays. Measured 0.5 to 1.0 ml medium was poured into 1.5 ml graduated microcentrifuge tubes. Twig cuttings of 2.5 cm were inoculated in 10 replicates for each treatment. These inoculated tubes were put into a half transparent desiccator allowing air passage through sterile cotton plugs fixed on opening vent. The tubes were placed such that the medium-containing portion of the tubes where roots would be initiating is inserted in to the holes of the stand made from a thermocol sheet. These desiccators were incubated at normal ambient temperature of 25 to 28° C. with 14 hours light and 10 hours dark cycle. The root initiation, shoot elongation, callus induction, shoot proliferation and wilting was recorded from day 2 to 14 every 24 hours."}, "Mentha arvensis": {"tested_on": "Mentha arvensis", "assay": "Growth promoting activity with Mentha arvensis internode explants", "type": "in vivo", "experimental": "To confirm the growth promoting activity of methanone-(3′,4′,5′-trimethoxy) phenyl, 1-naphthyl, 2-O-4″-ethyl but-2″-enoate, it was tested with a medicinal and aromatic plant species Mentha arvensis. The explants used were 0.5 cm long pieces of the second and third internodes of the shoots formed from axillary buds and culture. The internode segments were inoculated in MS basal media (Murashige and Skoog, 1962, Physiol. Planta. 15: pp. 473 to 497) containing vitamins 100 μg/ml, myo-inositol 3%, w/v, sucrose 1.5% w/v, Agar and different concentrations of auxins and cytokinin. Different concentrations of 1-naphthalene acetic acid (NM) (0.0, 0.2, 2.0 μg/ml) were used in combination with different concentrations of 6 benzyl amino purine (BAP) (0, 10 & 5 μg/ml). On each kind of media […] of the explants were inoculated into three petriplates with each plates containing 4 explants. Compound 1 was serially replaced with each concentration of NM and BAP individually to observe its growth promoting activity. The experiment was arranged in the form of a completely randomized design (CRD).\nCultures were maintained at 25±2° C. and 400 to 600 lux light intensity with 16 h photoperiod. The response of explants was recorded every 24 h over 4 week periods. […] The proportional increase in biomass was recorded by taking the fresh weight of the growing tissue during sub culturing and dividing the increase with the initial weight.\nAt the end of 12 weeks from inoculation the shoots were separated and individually transferred to MS basal media containing vitamins for rooting. The rooted plantlets were subsequently transferred to pods in a green house.\nThe basal medium for studying the response was MS 0 (Murashige and Skoog, 1962, Physiol. Planta. 15: pp. 473 to 497) supplemented with 0.2 mg/L IAA (indole acetic acid) and 5 mg/L BAP (benzene amino purine).\nThe basal medium for studying the response was MS 0 (Murashige and Skoog, 1962, Physiol. Planta. 15: pp. 473 to 497) supplemented with 2mg/L IAA (indole acetic acid) and 10 mg/L BAP (benzene amino purine)."}},
  "data": [
    {"compound": "CCOC(=O)C=CCOc1ccc2ccccc2c1C(=O)c1cc(OC)c(OC)c(OC)c1", "note": "[Compound 1, methanone-(3′,4′,5′-trimethoxy) phenyl, 1-naphthyl 2-O-4″-ethyl but-2″-enoate]", "values": [
      {"measurement": "Shoot Elongation", "setting": "Bacopa monnieri; 1.0 μg/ml in MS basal medium, 2.5 cm twig cuttings, 10 replicates, recorded day 2 to 14, control 1.0", "result": 1.6, "unit": "cms"},
      {"measurement": "Browning Yellowing Death", "setting": "Bacopa monnieri; 1.0 μg/ml in MS basal medium, twig cuttings, day 2 to 14", "result": "Nil"},
      {"measurement": "Root Elongation", "setting": "Bacopa monnieri; 1.0 μg/ml in MS basal medium, twig cuttings, day 2 to 14, control 0.8", "result": 0.8, "unit": "cms"},
      {"measurement": "Branching", "setting": "Bacopa monnieri; 1.0 μg/ml in MS basal medium, twig cuttings, day 2 to 14, control 2.0", "result": 2.0, "unit": "nos"},
      {"measurement": "Number of Roots", "setting": "Bacopa monnieri; 1.0 μg/ml in MS basal medium, twig cuttings, day 2 to 14, control 2 + 2", "result": "2 + 2 nos"},
      {"measurement": "Number of Leaves", "setting": "Bacopa monnieri; 1.0 μg/ml in MS basal medium, twig cuttings, day 2 to 14, control 5.0", "result": 11.0, "unit": "nos"},
      {"measurement": "enhances the shoot elongation", "setting": "Bacopa monnieri; within 15 days", "result": "about 1.6 cm"},
      {"measurement": "Number of shoots observed after three weeks", "setting": "Mentha arvensis; Medium A2 with IAA replaced: BAP 5.0, Compound 1 0.2, no roots", "result": "1–2 shoots shoots per explant"},
      {"measurement": "Number of shoots observed after three weeks", "setting": "Mentha arvensis; Medium A3 with IAA replaced: BAP 10.0, Compound 1 2.0, single root in one replication", "result": "3–4 shoots shoots per explant"},
      {"measurement": "shoots produced", "setting": "Mentha arvensis; within three weeks in medium A3", "result": "3 to 4", "unit": "shoots"}
    ]}
  ]
}
